Test results as given in patent US9884063B2, “Amido-substituted azole compounds” (Bayer Pharma Aktiengesellschaft, priority 2014, dated 2018).

Target: T1, TNKS1 (Homo sapiens, UniProt O95271)
T1 sequence (O95271 1-1327): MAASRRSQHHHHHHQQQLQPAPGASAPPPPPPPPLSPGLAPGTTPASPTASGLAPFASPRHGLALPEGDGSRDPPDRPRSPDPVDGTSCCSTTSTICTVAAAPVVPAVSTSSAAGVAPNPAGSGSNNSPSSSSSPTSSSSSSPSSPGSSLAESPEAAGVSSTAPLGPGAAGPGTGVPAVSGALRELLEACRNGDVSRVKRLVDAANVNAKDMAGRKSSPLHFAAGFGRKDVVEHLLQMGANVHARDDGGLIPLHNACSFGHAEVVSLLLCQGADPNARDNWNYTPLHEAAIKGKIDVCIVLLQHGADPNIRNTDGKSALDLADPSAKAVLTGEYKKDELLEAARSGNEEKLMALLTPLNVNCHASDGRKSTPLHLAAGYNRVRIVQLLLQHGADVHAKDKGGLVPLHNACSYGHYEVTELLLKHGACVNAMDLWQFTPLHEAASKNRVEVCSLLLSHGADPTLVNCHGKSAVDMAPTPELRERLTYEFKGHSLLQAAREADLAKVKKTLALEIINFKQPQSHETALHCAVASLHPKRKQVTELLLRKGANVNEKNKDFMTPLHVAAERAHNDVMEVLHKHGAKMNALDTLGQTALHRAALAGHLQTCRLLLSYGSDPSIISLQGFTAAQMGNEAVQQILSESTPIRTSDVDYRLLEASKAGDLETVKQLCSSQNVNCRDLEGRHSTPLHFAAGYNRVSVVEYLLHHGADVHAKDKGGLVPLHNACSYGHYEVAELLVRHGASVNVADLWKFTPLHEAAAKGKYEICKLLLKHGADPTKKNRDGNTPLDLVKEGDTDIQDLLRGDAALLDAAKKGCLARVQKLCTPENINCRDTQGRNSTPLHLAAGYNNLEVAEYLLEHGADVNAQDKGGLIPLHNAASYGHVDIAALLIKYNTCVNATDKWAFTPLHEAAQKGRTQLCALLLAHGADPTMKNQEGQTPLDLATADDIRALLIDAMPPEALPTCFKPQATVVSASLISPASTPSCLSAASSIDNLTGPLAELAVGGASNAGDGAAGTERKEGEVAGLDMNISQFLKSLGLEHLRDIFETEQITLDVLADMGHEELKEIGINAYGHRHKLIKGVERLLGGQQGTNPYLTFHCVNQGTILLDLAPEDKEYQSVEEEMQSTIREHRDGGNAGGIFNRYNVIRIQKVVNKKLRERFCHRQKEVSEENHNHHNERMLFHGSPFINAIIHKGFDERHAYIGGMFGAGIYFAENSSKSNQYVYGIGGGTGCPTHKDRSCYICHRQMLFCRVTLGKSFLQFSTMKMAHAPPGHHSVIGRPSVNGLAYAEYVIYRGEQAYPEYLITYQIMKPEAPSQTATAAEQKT
Assay: Modified TNKS1 Assay 2 (auto-parsylation, [3H]-NAD+ SPA)
Format: biochemical
Conditions: 6 nM TNKS1, 96 well
Procedure: The potency of selected compounds according to the invention was assessed applying an modified in vitro inhibition assay. Here, the TNKS1 catalyzed NAD^+-dependent ribosylation of the enzyme itself (auto-parsylation) was detected using [^3H]-NAD^+ as substrate and applying the scintillation proximity assay (SPA) method to detect tritium-labeled, parsylated TNKS1. The intensity of the readout signal is proportional to the incorporated [^3H]-NAD^+. Inhibition of TNKS1 leads to a decreased incorporation of [^3H]-NAD^+ and consequently to a lower readout signal intensity. The concentration of a test compound which inhibits the enzyme activity by 50% (corresponds to half of the normed readout signal intensity) is reported as IC50.
The assay was conducted in a 96 well MTP format with the identical TNKS1 enzyme sample and NAD^+ sample as in the histone ribosylation assay with the following modifications: TNKS1 enzyme sample was diluted with a modified assay buffer (50 mM MES pH 7.0, 1 mM DTT, 0.01% Triton X-100) to a final concentration of 6 nM TNKS1 and 10×NAD^+ solution was diluted with the modified assay buffer (s. above) to a final 0.445×NAD^+ solution doped with 100 Bq/ul [^3H]-NAD^+[Catalog #NET443H050UC, Perkin Elmer, Waltham, Mass., USA]. Substrate solution (10 ul) was incubated with different test compound concentrations (2.5 ul in 10% DMSO in modified assay buffer) or control (2.5 ul 10% DMSO in modified assay buffer only) and enzyme (10 ul) over night at room temperature. Incorporated tritium was measured after addition of 50 ul SPA beads (1 mg/ml) [Catalog #RPNQ0095 20 mg/ml, Perkin Elmer, Waltham, Mass., USA; diluted 1:10 with Dulbecco's phosphate buffered saline, PBS Catalog #D8537, Sigma-Aldrich, Steinheim, Germany] and detection of the photon emission with a beta count plate reader [Wallac MicroBeta®, Perkin Elmer, Waltham, Mass., USA].

Row | SMILES | IC50
1 | CNC(=O)c1nc[nH]c1C(=O)Nc1ccc(NC(=O)c2ccc(N(C)C)cc2Cl)cc1 [Example 4, N^5-(4-{[2-chloro-4-(dimethylamino)benzoyl]amino}phenyl)-N^4-methyl-1H-imidazole-4,5-dicarboxamide] | 0.08 µM
2 | CNC(=O)c1nc[nH]c1C(=O)Nc1ccc(NC(=O)c2ccc(F)cc2Cl)c(C)c1 [Example 5, N^5-{4-[(2-chloro-4-fluorobenzoyl)amino]-3-methylphenyl}-N^4-methyl-1H-imidazole-4,5-dicarboxamide] | 0.32 µM
3 | CNC(=O)c1nc[nH]c1C(=O)Nc1ccc(NC(=O)c2ccncc2Cl)cc1 [Example 6, N^5-{4-[(3-chloroisonicotinoyl)amino]phenyl}-N^4-methyl-1H-imidazole-4,5-dicarboxamide] | 0.15 µM
4 | CNC(=O)c1nc[nH]c1C(=O)Nc1ccc(NC(=O)c2ccc(Cl)cc2Cl)cc1 [Example 9, N^5-{4-[(2,4-dichlorobenzoyl)amino]phenyl}-N^4-methyl-1H-imidazole-4,5-dicarboxamide] | 0.15 µM
5 | CC(C)NC(=O)c1nc[nH]c1C(=O)Nc1ccc(NC(=O)c2ccc(F)cc2Cl)cc1 [Example 10, N^5-{4-[(2-chloro-4-fluorobenzoyl)amino]phenyl}-N^4-isopropyl-1H-imidazole-4,5-dicarboxamide] | 0.29 µM
6 | CNC(=O)c1ncoc1C(=O)Nc1ccc(NC(=O)c2ccc(F)cc2Cl)cc1 [Example 11, N^5-{4-[(2-chloro-4-fluorobenzoyl)amino]phenyl}-N^4-methyl-1,3-oxazole-4,5-dicarboxamide] | 0.15 µM
7 | CNC(=O)c1nc[nH]c1C(=O)Nc1ccc(NC(=O)c2ccc(F)cc2Cl)cc1 [Example 12, N^5-{4-[(2-chloro-4-fluorobenzoyl)amino]phenyl}-N^4-methyl-1H-imidazole-4,5-dicarboxamide] | 0.02 µM
8 | CNC(=O)c1nc[nH]c1C(=O)Nc1ccc(NC(=O)c2ccc(F)cc2Cl)nc1 [Example 16, N^5-{6-[(2-chloro-4-fluorobenzoyl)amino]pyridin-3-yl}-N^4-methyl-1H-imidazole-4,5-dicarboxamide] | 0.03 µM
9 | CNC(=O)c1nc[nH]c1C(=O)Nc1ccc(NC(=O)c2ccccc2C)cc1 [Example 19, N^4-methyl-N^5-{4-[(2-methylbenzoyl)amino]phenyl}-1H-imidazole-4,5-dicarboxamide] | 1.8 µM
10 | CNC(=O)c1nc[nH]c1C(=O)Nc1ccc(NC(=O)c2ccc(F)cc2)cc1 [Example 20, N^5-{4-[(4-fluorobenzoyl)amino]phenyl}-N^4-methyl-1H-imidazole-4,5-dicarboxamide] | > 10 µM
11 | CN(C)C(=O)c1nc[nH]c1C(=O)Nc1ccc(NC(=O)c2ccc(F)cc2Cl)cc1 [Example 24, N^5-{4-[(2-chloro-4-fluorobenzoyl)amino]phenyl}-N^4,N^4-dimethyl-1H-imidazole-4,5-dicarboxamide] | 2.6 µM
12 | CNC(=O)c1nc[nH]c1C(=O)Nc1ccc(NC(=O)c2ccc(OCCN(C)C)cc2Cl)cc1 [Example 25, N^5-[4-({2-chloro-4-[2-(dimethylamino)ethoxy]benzoyl}amino)phenyl]-N^4-methyl-1H-imidazole-4,5-dicarboxamide] | 0.08 µM
13 | CNC(=O)c1nc[nH]c1C(=O)Nc1ccc(NC(=O)c2c(Cl)cccc2Cl)cc1 [Example 26, N^5-{4-[(2,6-dichlorobenzoyl)amino]phenyl}-N^4-methyl-1H-imidazole-4,5-dicarboxamide] | 1.7 µM
14 | CNC(=O)c1nc[nH]c1C(=O)Nc1ccc(NC(=O)c2ccccc2Cl)cc1 [Example 27, N^5-{4-[(2-chlorobenzoyl)amino]phenyl}-N^4-methyl-1H-imidazole-4,5-dicarboxamide] | 0.63 µM
15 | CNC(=O)c1nc[nH]c1C(=O)Nc1ccc(NC(=O)c2ccc(OCCN3CCN(C)CC3)cc2Cl)cc1 [Example 28, N^5-[4-({2-chloro-4-[2-(4-methylpiperazin-1-yl)ethoxy]benzoyl}amino)phenyl]-N^4-methyl-1H-imidazole-4,5-dicarboxamide] | 0.06 µM
16 | O=C(Nc1ccc(NC(=O)c2[nH]cnc2C(=O)NCC(F)(F)F)cc1)c1ccc(F)cc1Cl [Example 30, N^4-{4-[(2-chloro-4-fluorobenzoyl)amino]phenyl}-N^5-(2,2,2-trifluoroethyl)-1H-imidazole-4,5-dicarboxamide] | 0.05 µM
17 | CNC(=O)c1nc[nH]c1C(=O)Nc1ccc(NC(=O)c2c(F)cc(F)cc2Cl)cc1 [Example 118, N^5-{4-[(2-chloro-4,6-difluorobenzoyl)amino]phenyl}-N^4-methyl-1H-imidazole-4,5-dicarboxamide] | 0.08 µM
18 | O=C(NCCN1CCCCC1)c1nc[nH]c1C(=O)Nc1ccc(NC(=O)c2c(F)cc(F)cc2Cl)cc1 [Example 119, N^5-{4-[(2-chloro-4,6-difluorobenzoyl)amino]phenyl}-N^4-[2-(piperidin-1-yl)ethyl]-1H-imidazole-4,5-dicarboxamide] | 0.002 µM
19 | NC(=O)c1nc[nH]c1C(=O)Nc1ccc(NC(=O)c2ccc(F)cc2Cl)cc1 [Example 121] | 0.04 µM
20 | CNC(=O)c1nc[nH]c1C(=O)Nc1ccc(NC(=O)c2ccc(O)cc2Cl)cc1 [Example 122, N^5-{4-[(2-chloro-4-hydroxybenzoyl)amino]phenyl}-N^4-methyl-1H-imidazole-4,5-dicarboxamide] | 0.95 µM
21 | CNC(=O)c1nc[nH]c1C(=O)Nc1ccc(NC(=O)c2cc(OCCN3CCN(C)CC3)ccc2Cl)cc1 [Example 124, N^5-[4-({2-chloro-5-[2-(4-methylpiperazin-1-yl)ethoxy]benzoyl}amino)phenyl]-N^4-methyl-1H-imidazole-4,5-dicarboxamide] | > 10 µM
22 | CNC(=O)c1nc[nH]c1C(=O)Nc1ccc(NC(=O)c2cc(OCCN3CCCCC3)ccc2Cl)cc1 [Example 125, N^5-[4-({2-chloro-5-[2-(piperidin-1-yl)ethoxy]benzoyl}amino)phenyl]-N^4-methyl-1H-imidazole-4,5-dicarboxamide] | > 10 µM
23 | CC1CCN(CCNC(=O)c2nc[nH]c2C(=O)Nc2ccc(NC(=O)c3ccc(F)cc3Cl)cc2)CC1 [Example 126, N^5-{4-[(2-chloro-4-fluorobenzoyl)amino]phenyl}-N^4-[2-(4-methylpiperidin-1-yl)ethyl]-1H-imidazole-4,5-dicarboxamide] | 0.01 µM
24 | COCCNC(=O)c1[nH]cnc1C(=O)Nc1ccc(NC(=O)c2ccc(F)cc2Cl)cc1 [Example 130, N^4-{4-[(2-chloro-4-fluorobenzoyl)amino]phenyl}-N^5-(2-methoxyethyl)-1H-imidazole-4,5-dicarboxamide] | 0.03 µM
25 | O=C(Nc1ccc(NC(=O)c2nc[nH]c2C(=O)NC2CC2)cc1)c1ccc(F)cc1 [Example 131, N^5-cyclopropyl-N^4-{4-[(4-fluorobenzoyl)amino]phenyl}-1H-imidazole-4,5-dicarboxamide] | > 10 µM
